pIC50: −log10 of the molar value.
Assays:
[1] = target: 3',5'-cyclic-AMP phosphodiesterase 4B (Homo sapiens, UniProt Q07343); experiment: Inhibition of human recombinant PDE4B1 activity assessed as residual cAMP concentration by HTRF assay
[2] = Half life in human plasma after 60 mins by […] analysis; assay type: ADME, cell-free
[3] = Half life in human lung S9 fraction after 60 mins by […] analysis; assay type: ADME, tissue-based
[4] = Half life in human lung homogenate after 60 mins by […] analysis; assay type: ADME, tissue-based
[5] = target: 3',5'-cyclic-AMP phosphodiesterase 4D (Homo sapiens, UniProt Q08499)
Description: Inhibition of human recombinant PDE4D2 activity assessed as residual cAMP concentration by HTRF assay

[6] = Apparent permeability of the compound at pH 7.4 buffer by PAMPA; assay type: physicochemical

Sequence of 3',5'-cyclic-AMP phosphodiesterase 4D (Q08499 whole entry): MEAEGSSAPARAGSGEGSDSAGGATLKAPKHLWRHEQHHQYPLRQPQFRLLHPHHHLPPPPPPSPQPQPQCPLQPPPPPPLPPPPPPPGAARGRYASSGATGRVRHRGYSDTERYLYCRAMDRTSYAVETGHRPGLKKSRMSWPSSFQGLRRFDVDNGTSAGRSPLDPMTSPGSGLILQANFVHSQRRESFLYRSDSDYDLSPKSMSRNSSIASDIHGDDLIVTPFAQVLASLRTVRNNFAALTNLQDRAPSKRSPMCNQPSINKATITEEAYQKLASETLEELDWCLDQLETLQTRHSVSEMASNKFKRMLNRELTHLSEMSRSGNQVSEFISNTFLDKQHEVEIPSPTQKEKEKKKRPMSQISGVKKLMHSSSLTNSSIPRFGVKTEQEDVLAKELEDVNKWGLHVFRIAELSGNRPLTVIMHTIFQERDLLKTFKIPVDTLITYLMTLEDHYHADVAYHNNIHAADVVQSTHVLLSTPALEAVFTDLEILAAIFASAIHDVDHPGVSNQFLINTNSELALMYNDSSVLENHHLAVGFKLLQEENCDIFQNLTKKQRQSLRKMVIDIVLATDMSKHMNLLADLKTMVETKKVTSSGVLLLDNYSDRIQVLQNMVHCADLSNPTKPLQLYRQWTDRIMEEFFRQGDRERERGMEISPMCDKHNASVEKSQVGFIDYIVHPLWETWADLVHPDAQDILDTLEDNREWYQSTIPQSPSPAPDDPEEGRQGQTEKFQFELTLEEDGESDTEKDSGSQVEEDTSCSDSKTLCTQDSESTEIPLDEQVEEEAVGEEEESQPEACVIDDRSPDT
Sequence of 3',5'-cyclic-AMP phosphodiesterase 4B (Q07343 whole entry): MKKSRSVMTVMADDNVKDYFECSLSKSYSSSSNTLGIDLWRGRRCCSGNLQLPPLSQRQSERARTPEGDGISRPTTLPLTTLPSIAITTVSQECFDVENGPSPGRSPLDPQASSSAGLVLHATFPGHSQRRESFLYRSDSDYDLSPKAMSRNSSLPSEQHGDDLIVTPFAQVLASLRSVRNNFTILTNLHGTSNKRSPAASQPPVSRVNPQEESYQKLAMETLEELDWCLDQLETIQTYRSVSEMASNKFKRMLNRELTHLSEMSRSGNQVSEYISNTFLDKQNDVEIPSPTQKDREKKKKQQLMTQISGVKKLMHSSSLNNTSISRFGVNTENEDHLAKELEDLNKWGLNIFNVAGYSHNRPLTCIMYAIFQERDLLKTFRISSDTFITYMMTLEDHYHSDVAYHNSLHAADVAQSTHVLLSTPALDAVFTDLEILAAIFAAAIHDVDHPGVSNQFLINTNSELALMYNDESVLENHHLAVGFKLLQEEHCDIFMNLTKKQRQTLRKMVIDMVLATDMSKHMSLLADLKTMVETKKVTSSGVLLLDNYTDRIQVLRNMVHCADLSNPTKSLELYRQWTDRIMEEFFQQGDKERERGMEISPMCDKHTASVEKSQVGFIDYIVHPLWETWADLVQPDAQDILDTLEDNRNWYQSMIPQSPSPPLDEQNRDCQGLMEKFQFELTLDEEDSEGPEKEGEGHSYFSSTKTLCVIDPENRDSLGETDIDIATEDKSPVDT

Row | SMILES | pIC50 [1] | half-life [2] | half-life [3] | half-life [4] | pIC50 [5] | Papp [6]
1 | O=C(Nc1c(Cl)cncc1Cl)c1ccc(OC(F)F)c(OCCCNC(CCO)C(=O)O)c1 (configuration not stated) | 6.13 | – | – | – | 5.64 | 0.2 nm/s
2 | O=C(Nc1c(Cl)cncc1Cl)c1ccc(OC(F)F)c(OCCCN[C@H](CCO)C(=O)O)c1 | 5.77 | – | – | – | 5.14 | –
3 | O=C(Nc1c(Cl)cncc1Cl)c1ccc(OC(F)F)c(OCCCN[C@@H](CCO)C(=O)O)c1 | 5.57 | – | – | – | < 5.00 | –
4 | O=C(Nc1c(Cl)cncc1Cl)c1ccc(OC(F)F)c(OCCCCNC(CCO)C(=O)O)c1 (configuration not stated) | 6.74 | – | – | – | 6.82 | 0.3 nm/s
5 | O=C(O)CNCCCOc1cc(C(=O)Nc2c(Cl)cncc2Cl)ccc1OC(F)F | 6.04 | – | – | – | 5.82 | < 0.1 nm/s
6 | CC(C)NCC(O)COc1cccc2ccccc12 (configuration not stated) [PROPRANOLOL] | – | – | – | – | – | 100 nm/s
7 | CNC(=C[N+](=O)[O-])NCCSCc1ccc(CN(C)C)o1 [RANITIDINE] | – | – | – | – | – | 1.4 nm/s

Next, values leading:

Row | pIC50 [1] | half-life [2] | half-life [3] | half-life [4] | pIC50 [5] | Papp [6] | SMILES
8 | 8.27 | < 5 min | > 60 min | > 60 min | 7.74 | – | O=C(Nc1c(Cl)cncc1Cl)c1ccc(OC(F)F)c(OCCCNC2CCOC2=O)c1 (configuration not stated)
9 | 7.92 | – | – | – | 8.14 | – | O=C(Nc1c(Cl)cncc1Cl)c1ccc(OC(F)F)c(OCCCN[C@@H]2CCOC2=O)c1
10 | 7.96 | – | – | – | 7.32 | – | O=C(Nc1c(Cl)cncc1Cl)c1ccc(OC(F)F)c(OCCCN[C@H]2CCOC2=O)c1
11 | 8.74 | < 5 min | > 60 min | 39 min | 8.26 | – | O=C(Nc1c(Cl)cncc1Cl)c1ccc(OC(F)F)c(OCCCSC2CCOC2=O)c1 (configuration not stated)
12 | 8.26 | – | – | – | 8.00 | 1.4 nm/s | O=C(Nc1c(Cl)cncc1Cl)c1ccc(OC(F)F)c(OCCCSC(CCO)C(=O)O)c1 (configuration not stated)
13 | 8.40 | < 5 min | > 60 min | > 60 min | 8.18 | 47 nm/s | O=C(Nc1c(Cl)cncc1Cl)c1ccc(OC(F)F)c(OCCCCNC2CCOC2=O)c1 (configuration not stated)
14 | 8.33 | < 5 min | > 60 min | – | 8.74 | – | O=C(Nc1c(Cl)cncc1Cl)c1ccc(OC(F)F)c(OCCCCSC2CCOC2=O)c1 (configuration not stated)
15 | 8.06 | – | – | – | 8.35 | 0.5 nm/s | O=C(Nc1c(Cl)cncc1Cl)c1ccc(OC(F)F)c(OCCCCSC(CCO)C(=O)O)c1 (configuration not stated)
16 | 7.06 | 8 min | – | – | 6.77 | – | O=C(Nc1c(Cl)c[n+]([O-])cc1Cl)c1ccc(OC(F)F)c(OCCCNC2CCOC2=O)c1 (configuration not stated)
17 | 7.68 | 19 min | – | – | 7.49 | 89 nm/s | COC(=O)CNCCCOc1cc(C(=O)Nc2c(Cl)cncc2Cl)ccc1OC(F)F

From ChEMBL document CHEMBL3351837 (Bioorg Med Chem Lett, 2014)
